Results published in patent US20220388990A1, “INHIBITORS OF CYCLIN-DEPENDENT KINASES” (Kinnate Biopharma Inc., priority 2019, published 2022).
Structures can show the parent of a compound that is named as a salt.

Biological target: T1, CDK12 (Homo sapiens, UniProt Q9NYV4)
T1 construct: ProQinase (named as the party running the assay)
Assay: Radiometric protein kinase assay (33PanQinase), assay condition 1, thiol-free conditions
Assay type: biochemical
Details: thiol-free conditions (1 mM TCEP), ATP at apparent Km
Experimental: Example 2 —Assay condition 1 (thiol-free conditions)
The IC50 profile of compounds was determined using protein kinase in a customized, thiol free assay. IC50 values were measured by testing 10 concentrations (1×10^−05 M to 3×10^−10 M) of each test compound in singlicate against each kinase of interest. Prior to testing, the 1×10^−03M stock solutions in column 2 of the master plates were subjected to a serial, semi-logarithmic dilution using 100% DMSO as a solvent. […] Column 1 and 7 were filled with 100% DMSO as controls. Subsequently, 2×10 microliter from each well of the serial diluted copy plates were aliquoted with a 96 channel pipettor into two identical sets of “compound dilution plates”. All plates were barcoded for automated identification and tracking purposes. IC50 values were measured by testing 10 concentrations (1×10^−05 M to 3×10^−10 M) of each compound in singlicate. All compounds were stored as powder until being solubilized in DMSO. Solubilized compounds were stored as 1×10^−02 M/100% DMSO stock solutions. Prior to the assay process, 90 microliters of H2O were added to each well of a set of compound dilution plates. To minimize potential precipitation, the H2O was added to each plate only a few minutes before the transfer of the compound solutions into the assay plates. Each plate was shaken thoroughly, resulting in compound dilution plates with a final of 10% DMSO. For each assay, 5 microliters of solution from each well of the compound dilution plates/10% DMSO were transferred into the assay plate. The final volume of the assay was 50 μl. All compounds were tested at 10 final assay concentrations in the range from 1×10^−05 M to 3×10^−10 M, in singlicate. The final DMSO concentration in the reaction cocktails was 1% in all cases. A radiometric protein kinase assay (33PanQinase® Activity Assay) was used for measuring the kinase activity of the protein kinase. All kinase assays were performed in 96-well FlashPlates™ from PerkinElmer (Boston, Mass., USA) in a 50 microliter reaction volume. The reaction cocktail was pipetted in four steps in the following order: 20 microliter of assay buffer (standard buffer) 5 microliter of ATP solution (in H2O) 5 microliter of test compound (in 10% DMSO) 20 microliter enzyme/subtrate mix. Each assay for the protein kinase contained 70 mM HEPES-NaOH pH 7.5, 3 mM MgCl2, 3 mM MnCl2, 3 microM Na-orthovanadate, 1 mM TCEP, 50 μg/ml PEG20000, ATP (corresponding to the apparent ATP-Km of the kinase, see Table A), [gamma-33P]-ATP (approx. 6×10×E5 cpm per well), with the protein kinase and relevant substrate being used in pre-determined amounts, depending on the kinase in question. For all experiments labeled as “Thiol-free”, all glutathione was exchanged from protein preparations so as to be removed from the assay and final buffer conditions contained no thiol- containing reagents. This was done so there would be no interference with the key cysteines in the proteins of interest.
For data analysis, the median value of the counts in column 1 (n=8) of each assay plate was defined as “low control”. This value reflects unspecific binding of radioactivity to the plate in the absence of a protein kinase but in the presence of the substrate. The median value of the counts in column 7 of each assay plate (n=8) was taken as the “high control”, i.e. full activity in the absence of any inhibitor. The difference between high and low control was taken as 100% activity. As part of the data evaluation the low control value from a particular plate was subtracted from the high control value as well as from all 80 “compound values” of the corresponding plate. The residual activity (in %) for each well of a particular plate was calculated by using the following formula:
Res. Activity (%)=100×[(cpm of compound−low control)/(high control−low control)] […]

T1 sequence (Q9NYV4 whole entry): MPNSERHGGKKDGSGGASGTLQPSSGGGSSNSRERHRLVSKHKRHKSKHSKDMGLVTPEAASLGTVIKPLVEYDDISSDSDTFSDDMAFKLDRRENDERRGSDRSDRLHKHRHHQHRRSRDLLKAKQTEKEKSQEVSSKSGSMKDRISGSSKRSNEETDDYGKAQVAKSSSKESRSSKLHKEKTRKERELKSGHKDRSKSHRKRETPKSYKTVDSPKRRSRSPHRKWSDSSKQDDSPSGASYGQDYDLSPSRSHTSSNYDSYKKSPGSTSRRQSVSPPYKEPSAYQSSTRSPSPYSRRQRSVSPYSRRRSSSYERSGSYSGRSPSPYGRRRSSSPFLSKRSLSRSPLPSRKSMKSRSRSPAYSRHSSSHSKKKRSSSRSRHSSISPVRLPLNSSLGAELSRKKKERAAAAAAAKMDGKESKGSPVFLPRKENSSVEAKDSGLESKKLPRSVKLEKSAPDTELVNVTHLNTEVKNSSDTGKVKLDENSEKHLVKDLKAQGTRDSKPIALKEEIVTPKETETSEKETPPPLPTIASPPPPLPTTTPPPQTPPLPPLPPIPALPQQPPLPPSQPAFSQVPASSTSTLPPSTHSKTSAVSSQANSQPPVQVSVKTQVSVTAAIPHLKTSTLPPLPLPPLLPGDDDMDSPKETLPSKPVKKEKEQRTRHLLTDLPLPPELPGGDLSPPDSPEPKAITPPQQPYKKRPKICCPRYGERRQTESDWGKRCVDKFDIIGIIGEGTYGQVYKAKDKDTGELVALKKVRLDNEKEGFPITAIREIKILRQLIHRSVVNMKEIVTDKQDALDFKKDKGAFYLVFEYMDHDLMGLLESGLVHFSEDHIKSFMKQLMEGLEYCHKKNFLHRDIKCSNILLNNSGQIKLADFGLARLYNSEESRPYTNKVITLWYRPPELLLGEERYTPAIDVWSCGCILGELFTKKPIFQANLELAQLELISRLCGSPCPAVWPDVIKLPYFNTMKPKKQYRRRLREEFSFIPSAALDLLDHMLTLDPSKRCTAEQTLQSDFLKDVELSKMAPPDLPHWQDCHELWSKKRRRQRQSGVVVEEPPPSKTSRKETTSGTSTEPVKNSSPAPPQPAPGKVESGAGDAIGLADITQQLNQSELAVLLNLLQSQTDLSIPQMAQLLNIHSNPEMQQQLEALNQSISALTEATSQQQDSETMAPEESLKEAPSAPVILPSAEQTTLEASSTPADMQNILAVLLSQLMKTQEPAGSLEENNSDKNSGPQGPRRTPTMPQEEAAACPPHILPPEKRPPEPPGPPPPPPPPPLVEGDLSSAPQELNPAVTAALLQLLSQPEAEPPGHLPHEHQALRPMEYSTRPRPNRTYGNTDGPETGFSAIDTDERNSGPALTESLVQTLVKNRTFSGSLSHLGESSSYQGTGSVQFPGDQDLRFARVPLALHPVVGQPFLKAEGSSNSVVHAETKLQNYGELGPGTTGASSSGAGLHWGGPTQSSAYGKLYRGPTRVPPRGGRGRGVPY
T1 sequence (O75909 whole entry partner): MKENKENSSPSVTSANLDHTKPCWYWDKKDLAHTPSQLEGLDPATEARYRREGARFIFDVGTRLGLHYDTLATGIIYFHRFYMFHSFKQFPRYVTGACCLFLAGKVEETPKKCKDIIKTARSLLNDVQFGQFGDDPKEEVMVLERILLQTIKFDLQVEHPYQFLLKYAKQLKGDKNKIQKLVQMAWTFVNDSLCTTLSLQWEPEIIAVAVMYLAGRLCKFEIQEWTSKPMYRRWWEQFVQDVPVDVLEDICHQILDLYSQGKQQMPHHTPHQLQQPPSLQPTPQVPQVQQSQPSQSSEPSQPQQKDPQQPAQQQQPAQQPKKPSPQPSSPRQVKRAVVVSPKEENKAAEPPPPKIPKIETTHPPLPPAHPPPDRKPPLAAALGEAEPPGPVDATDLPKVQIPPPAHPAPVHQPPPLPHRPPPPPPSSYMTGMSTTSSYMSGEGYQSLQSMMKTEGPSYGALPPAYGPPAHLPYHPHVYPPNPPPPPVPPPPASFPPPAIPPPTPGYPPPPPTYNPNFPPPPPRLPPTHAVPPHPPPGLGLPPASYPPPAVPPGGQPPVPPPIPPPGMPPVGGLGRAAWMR

IC50 [µM] | SMILES
≤ 0.1 | C=CC(=O)Nc1ccc2c(N3CC[C@@H](Nc4ncc5ccncc5n4)C3)ncnc2c1 [Example 16, (R)-N-(4-(3-(pyrido [3,4-d]pyrimidin-2-ylamino)pyrrolidin-1-yl)quinazolin-7-yl)acrylamide]
≤ 0.1 | C=CC(=O)Nc1ccc2c(N3CC[C@@H](Nc4ncc(Br)cn4)C3)nccc2c1 [Example 18, (R)-N-(1-(3-((5-bromopyrimidin-2-yl)amino)pyrrolidin-1-yl)isoquinolin-6-yl)acrylamide]
≤ 0.1 | C=CC(=O)Nc1ccc2c(N3CC[C@@H](Nc4ncc(Cl)c(OCC)n4)C3)nccc2c1 [Example 19, (R)-N-(1-(3-((5-chloro-4-ethoxypyrimidin-2-yl)amino)pyrrolidin-1-yl)isoquinolin-6-yl)acrylamide]
≤ 0.1 | C=CC(=O)Nc1ccc2c(N3CC[C@@H](Nc4ncc(Br)cn4)C3)nc(N3CCOCC3)nc2c1 [Example 20, (R)-N-(4-(3-((5-bromopyrimidin-2-yl)amino)pyrrolidin-1-yl)-2-morpholinoquinazolin-7-yl)acrylamide]
≤ 0.1 | C=CC(=O)Nc1ccc2c(N3CC[C@@H](Nc4ncc(Br)cn4)C3)nc(C)nc2c1 [Example 21, (R)-N-(4-(3-((5-bromopyrimidin-2-yl)amino)pyrrolidin-1-yl)-2-methylquinazolin-7-yl)acrylamide]
0.1 to 1 | C=CC(=O)Nc1ccc2c(N3CC[C@@H](Nc4ncc(C#N)cn4)C3)nc(N3CCOCC3)nc2c1 [Example 22, (R)-N-(4-(3-((5-cyanopyrimidin-2-yl)amino)pyrrolidin-1-yl)-2-morpholinoquinazolin-7-yl)acrylamide]
≤ 0.1 | C=CC(=O)Nc1ccc2c(N3CC[C@@H](Nc4ncc(C#N)cn4)C3)nc(N3CCN(C)CC3)nc2c1 [Example 24, (R)-N-(4-(3-((5-cyanopyrimidin-2-yl)amino)pyrrolidin-1-yl)-2-(4-methylpiperazin-1-yl)quinazolin-7-yl)acrylamide]
≤ 0.1 | C=CC(=O)Nc1ccc2c(N3CC[C@@H](Nc4ncc(Br)cn4)C3)ncnc2c1 [Example 25, (R)-N-(4-(3-((5-bromopyrimidin-2-yl)amino)pyrrolidin-1-yl)quinazolin-7-yl)acrylamide]
≤ 0.1 | C=CC(=O)Nc1ccc2c(N3CC[C@@H](Nc4ncc(C#N)cn4)C3)nccc2c1 [Example 26, (R)-N-(1-(3-((5-cyanopyrimidin-2-yl)amino)pyrrolidin-1-yl)isoquinolin-6-yl)acrylamide]
≤ 0.1 | C=CC(=O)N(C)c1ccc2c(N3CC[C@@H](Nc4ncc(Br)cn4)C3)nccc2c1 [Example 27, (R)-N-(1-(3-((5-bromopyrimidin-2-yl)amino)pyrrolidin-1-yl)isoquinolin-6-yl)-N-methylacrylamide]
≤ 0.1 | C/C=C/C(=O)Nc1ccc2c(N3CC[C@@H](Nc4ncc(Br)cn4)C3)nccc2c1 [Example 28, (R,E)-N-(1-(3-((5-bromopyrimidin-2-yl)amino)pyrrolidin-1-yl)isoquinolin-6-yl)but-2-enamide]
0.1 to 1 | C=CC(=O)Nc1ccc2c(N3CC[C@@H](Nc4ncc(C#N)cn4)C3)nc(N3CCCC3)nc2c1 [Example 29, (R)—N-(4-(3-((5-cyanopyrimidin-2-yl)amino)pyrrolidin-1-yl)-2-(pyrrolidin-1-yl)quinazolin-7-yl)acrylamide]
≤ 0.1 | C=CC(=O)Nc1ccc2c(N3CC[C@@H](Nc4ncc(C#N)cn4)C3)nc(C)nc2c1 [Example 30, (R)—N-(4-(3-((5-cyanopyrimidin-2-yl)amino)pyrrolidin-1-yl)-2-methylquinazolin-7-yl)acrylamide]
≤ 0.1 | C=CC(=O)Nc1ccc2c(N3CC[C@@H](Nc4ncc(C#N)cn4)C3)nc(N)nc2c1 [Example 31, (R)—N-(2-amino-4-(3-((5-cyanopyrimidin-2-yl)amino)pyrrolidin-1-yl)quinazolin-7-yl)acrylamide]
≤ 0.1 | C=CC(=O)Nc1ccc2c(N3CC[C@@H](Nc4cc5c(cn4)cnn5CC)C3)ncnc2c1 [Example 34, (R)—N-(4-(3-((1-ethyl-1H-pyrazolo[4,3-c]pyridin-6-yl)amino)pyrrolidin-1-yl)quinazolin-7-yl)acrylamide]
≤ 0.1 | C=CC(=O)N(C)c1ccc2c(N3CC[C@@H](Nc4ncc(Br)cn4)C3)nc(N3CCN(C)CC3)nc2c1 [Example 43, (R)—N-(4-(3-((5-bromopyrimidin-2-yl)amino)pyrrolidin-1-yl)-2-(4-methylpiperazin-1-yl)quinazolin-7-yl)-N-methylacrylamide]
≤ 0.1 | C#Cc1cnc(N[C@@H]2CCN(c3nccc4cc(N(C)C(=O)C=C)ccc34)C2)nc1 [Example 44, (R)—N-(1-(3-((5-ethynylpyrimidin-2-yl)amino)pyrrolidin-1-yl)isoquinolin-6-yl)-N-methylacrylamide]
≤ 0.1 | C=CC(=O)Nc1ccc2c(N3CC[C@@H](Nc4ncc(C#N)cn4)C3)nnc(N3CCC3)c2c1 [Example 45, (R)—N-(4-(azetidin-1-yl)-1-(3-((5-cyanopyrimidin-2-yl)amino)pyrrolidin-1-yl)phthalazin-6-yl)acrylamide formate]
≤ 0.1 | C#Cc1cnc(N[C@@H]2CCN(c3nccc4cc(NC(=O)C=C)ccc34)C2)nn1 [Example 47, (R)—N-(1-(3-((6-ethynyl-1,2,4-triazin-3-yl)amino)pyrrolidin-1-yl)isoquinolin-6-yl)acrylamide]
≤ 0.1 | C#Cc1cnc(N[C@@H]2CCN(c3nccc4cc(NC(=O)C=C)ccc34)C2)nc1 [Example 48, (R)—N-(1-(3-((5-ethynylpyrimidin-2-yl)amino)pyrrolidin-1-yl)isoquinolin-6-yl)acrylamide]
≤ 0.1 | C=CC(=O)Nc1ccc2c(N3CC[C@@H](Nc4ncc(C#N)cn4)C3)nncc2c1 [Example 49, (R)—N-(1-(3-((5-cyanopyrimidin-2-yl)amino)pyrrolidin-1-yl)phthalazin-6-yl)acrylamide]
≤ 0.1 | C=CC(=O)Nc1ccc2c(N3CC[C@@H](Nc4ncc(Br)cn4)C3)nncc2c1 [Example 50, (R)—N-(1-(3-((5-bromopyrimidin-2-yl)amino)pyrrolidin-1-yl)phthalazin-6-yl)acrylamide]
≤ 0.1 | C#Cc1cnc(N[C@@H]2CCN(c3nncc4cc(NC(=O)C=C)ccc34)C2)nc1 [Example 51, (R)—N-(1-(3-((5-ethynylpyrimidin-2-yl)amino)pyrrolidin-1-yl)phthalazin-6-yl)acrylamide formate]
≤ 0.1 | C=CC(=O)Nc1ccc2c(N3CC[C@@H](Nc4ncc(Br)cn4)C3)nnc(N3CCC3)c2c1 [Example 52, (R)—N-(4-(azetidin-1-yl)-1-(3-((5-bromopyrimidin-2-yl)amino)pyrrolidin-1-yl)phthalazin-6-yl)acrylamide]
≤ 0.1 | C#Cc1cnc(N[C@@H]2CCN(c3nnc(N4CCC4)c4cc(NC(=O)C=C)ccc34)C2)nn1 [Example 53]
≤ 0.1 | C=CC(=O)Nc1ccc2c(N3CC[C@@H](Nc4ncc(C#N)cn4)C3)nnc(N3CC(C#N)C3)c2c1 [Example 54, (R)—N-(4-(3-cyanoazetidin-1-yl)-1-(3-((5-cyanopyrimidin-2-yl)amino)pyrrolidin-1-yl)phthalazin-6-yl)acrylamide]
